Assay results taken from US11491120B2, “Pharmacological prophylactics against stress-induced affective disorders in females” (The Trustees of Columbia University in the City of New York, priority 2017, dated 2022).
“Also recorded” adds a separate entry of the source.

Key:
[1] = system: female 129S6/SvEv mice; experiment: Forced swim test after 10-day chronic immobilization stress (CIS); format: in vivo, mouse; details: 0.025 mg/kg, 1 week prophylactic drug
Protocol: The CIS procedure induces a depressive-like phenotype in test subjects and has both predictive and face validity (54). Here, we used an adapted protocol from Ramirez et al. (55).
As previously tested in male mice (18), we validated our findings in a model of chronic stress. […] Drug dosages were chosen based on results from FIG. 1 and used for the remainder of the project unless otherwise specified. One week later, a 10-day CIS protocol was administered. Subsequently, mice were tested in the FST.

[2] = system: female 129S6/SvEv mice; experiment: Contextual fear conditioning (CFC), 3-shock, freezing in training and context re-exposure; details: for p, Sal vs. drug, Dunnett test: Freezing (Average), Contextual Fear Conditioning Re-exposure / p, Freezing (min 1-5) / p, Freezing (min 2) / p, Freezing (min 3) / p, Freezing (min 4) / p, Freezing (min 5): 1 week prophylactic drug; for p, Freezing (min 1-5) / p, Freezing (min 2) / p, Freezing (min 3) / p, Freezing (min 4) / p, Freezing (min 5): Contextual Fear Conditioning Re-exposure
[3] = 0.025 mg/kg, 24 hours before CFC, female mice
[4] = Dunnett test Sal vs. drug (0.025)
[5] = Dunnett test Sal vs. drug (0.075)
[6] = Dunnett test Sal vs. drug (0.1)
[7] = Dunnett test Sal vs. drug (0.3)
[8] = Dunnett test Sal vs. drug (2.5)

Compound: N[C@@]1(c2ccccc2Cl)CCC[C@@H](O)C1=O [(2R,6R)-HNK, (2R,6R)-hydroxynorketamine]
- * (significance), Sal vs. drug, Fisher's PLSD: Immobility Time (min 1), Forced Swim Test Day 1 [1]: *** (*** p<0.0001)
- * (significance), Sal vs. drug, Fisher's PLSD: Immobility Time (min 1), Forced Swim Test Day 2 [1]: ** (** p<0.01)
- * (significance), Sal vs. drug, Fisher's PLSD: Immobility Time (min 2), Forced Swim Test Day 1 [1]: *** (*** p<0.0001)
- * (significance), Sal vs. drug, Fisher's PLSD: Immobility Time (min 3), Forced Swim Test Day 1 [1]: *** (*** p<0.0001)
- * (significance), Sal vs. drug, Fisher's PLSD: Immobility Time (min 4), Forced Swim Test Day 1 [1]: *** (*** p<0.0001)
- * (significance), Sal vs. drug, Fisher's PLSD: Immobility Time (min 5), Forced Swim Test Day 1 [1]: *** (*** p<0.0001)
- * (significance), Sal vs. drug, Fisher's PLSD: Immobility Time (min 5), Forced Swim Test Day 2 [1]: * (* p<0.05)
- * (significance), Sal vs. drug, Fisher's PLSD: Immobility Time (min 6), Forced Swim Test Day 1 [1]: *** (*** p<0.0001)
- * (significance), Sal vs. drug, Fisher's PLSD: Immobility Time (min 6), Forced Swim Test Day 2 [1]: ** (** p<0.01)
- * (significance), Sal vs. drug, Fisher's PLSD: Immobility Time Average (min 3-6), Forced Swim Test Day 2 [1]: * (* p<0.05)
- * (significance), Sal vs. drug, Fishers PLSD: Immobility Time Average (min 1-6), Forced Swim Test Day 1 [1]: *** (*** p<0.0001)
- p, Sal vs. drug, Fisher's PLSD: Immobility Time (min 1), Forced Swim Test Day 1 [1]: <0.0001
- p, Sal vs. drug, Fisher's PLSD: Immobility Time (min 1), Forced Swim Test Day 2 [1]: 0.0073
- p, Sal vs. drug, Fisher's PLSD: Immobility Time (min 2), Forced Swim Test Day 1 [1]: <0.0001
- p, Sal vs. drug, Fisher's PLSD: Immobility Time (min 2), Forced Swim Test Day 2 [1]: 0.8092
- p, Sal vs. drug, Fisher's PLSD: Immobility Time (min 3), Forced Swim Test Day 1 [1]: <0.0001
- p, Sal vs. drug, Fisher's PLSD: Immobility Time (min 4), Forced Swim Test Day 1 [1]: <0.0001
- p, Sal vs. drug, Fisher's PLSD: Immobility Time (min 5), Forced Swim Test Day 1 [1]: <0.0001
- p, Sal vs. drug, Fisher's PLSD: Immobility Time (min 5), Forced Swim Test Day 2 [1]: 0.0328
- p, Sal vs. drug, Fisher's PLSD: Immobility Time (min 6), Forced Swim Test Day 1 [1]: <0.0001
- p, Sal vs. drug, Fisher's PLSD: Immobility Time (min 6), Forced Swim Test Day 2 [1]: 0.0069
- p, Sal vs. drug, Fisher's PLSD: Immobility Time Average (min 3-6), Forced Swim Test Day 2 [1]: 0.0177
- p, Sal vs. drug, Fishers PLSD: Immobility Time Average (min 1-6), Forced Swim Test Day 1 [1]: <0.0001
- p, Sal vs. drug, Dunnett test: Freezing (Average), Contextual Fear Conditioning Re-exposure ([2]; 0.025 mg/kg): 0.4341
- Freezing / fear expression during re-exposure vs saline [2, 3]: comparable levels of freezing
- Freezing / fear learning during CFC training vs saline [2, 3]: comparable levels of freezing; also recorded: did not alter fear learning
- p, Sal vs. drug, Dunnett test: Freezing (Average), Contextual Fear Conditioning Re-exposure ([2]; 0.075 mg/kg): 0.9955
- p, Sal vs. drug, Dunnett test: Freezing (Average), Contextual Fear Conditioning Re-exposure ([2]; 0.1 mg/kg): 0.9257
- p, Sal vs. drug, Dunnett test: Freezing (Average), Contextual Fear Conditioning Re-exposure ([2]; 0.3 mg/kg): 0.9993
- p, Sal vs. drug, Dunnett test: Freezing (Average), Contextual Fear Conditioning Re-exposure ([2]; 2.5 mg/kg): 0.6274
- Freezing during 3-shock CFC training vs saline ([2]; 10 mg/kg, 1 week before CFC, female mice): significantly lowered freezing
- p, Sal vs. drug, Dunnett test: Freezing (Average), Contextual Fear Conditioning Re-exposure ([2]; 10 mg/kg): 0.9991
- Freezing during context re-exposure vs saline ([2]; 3 days before CFC, female mice): do not affect freezing during re-exposure
- p, Freezing (min 1-5) [2, 4]: 0.4341
- p, Freezing (min 2) [2, 4]: 0.1669
- p, Freezing (min 3) [2, 4]: 0.8139
- p, Freezing (min 4) [2, 4]: 0.6797
- p, Freezing (min 5) [2, 4]: 0.7607
- p, Freezing (min 1-5) [2, 5]: 0.9955
- p, Freezing (min 2) [2, 5]: >0.9999
- p, Freezing (min 3) [2, 5]: 0.9009
- p, Freezing (min 4) [2, 5]: 0.9994
- p, Freezing (min 5) [2, 5]: 0.9990
- p, Freezing (min 1-5) [2, 6]: 0.9257
- p, Freezing (min 2) [2, 6]: 0.9990
- p, Freezing (min 3) [2, 6]: 0.9333
- p, Freezing (min 4) [2, 6]: 0.9679
- p, Freezing (min 5) [2, 6]: 0.8119
- p, Freezing (min 1-5) [2, 7]: 0.9993
- p, Freezing (min 2) [2, 7]: 0.9998
- p, Freezing (min 3) [2, 7]: 0.9954
- p, Freezing (min 4) [2, 7]: 0.9994
- p, Freezing (min 5) [2, 7]: 0.9991
- p, Freezing (min 1-5) [2, 8]: 0.6274
- p, Freezing (min 2) [2, 8]: 0.2365
